# Where a SMILES comes first, the peptide text is derived from it. [ ]: non-standard residue; d: D form. The star is where a group is joined. Nva = CCC[C@H](N)C(=O)O; Cbz = O=C(OCc1ccccc1)*
# How the values were obtained:
# EIN3 protein [1] = assay: EIN3 protein immunoblot, etiolated wild-type seedlings; assay type: in vivo, Arabidopsis
# Experimental: With the exception of eto2 in Landsberg erecta (Ler) background, the ecotype Columbia (Col-0) was the parent strain for all mutant and transgenic lines described herein. Arabidopsis seeds were surface-sterilized and plated on the surface of MS medium (4.3 g MS salts, 10 g sucrose, pH 5.7, 8 g bactoagar per liter). After 3-4 days in the light at 4° C., the plates were wrapped in foil and kept in a 24° C. incubator before the phenotypes of seedlings were analyzed. For propagation, seedlings from plates were transferred to soil (Promix-HP) and grown to maturity at 22° C. under a 16 hr light/8 hr dark cycle.
# (§1) Ethylene treatment of Arabidopsis seedlings grown on plates was performed in containers by flowing through hydrocarbon-free air supplemented with 10 ppm (parts per million) ethylene or were treated with hydrocarbon-free air alone (Kieber et al., Cell 72, 427-441, 1993). For drug treatments, Arabidopsis suspension cell cultures were treated with MG132 (50 μM), MG115 (50 μM), Pefabloc SC (100 μM) or DMSO (0.1%) for a time course study. Alternatively, etiolated seedlings were germinated for three days on a disc of Whatman paper resting on the surface of MS medium. MG132 (50 μM), MG115 (50 μM), Pefabloc SC (100 μM) or DMSO (0.1%) was added to the paper discs for 4 hr. Cycloheximide (100 μM) was added to the paper discs and ethylene or air was applied for different amounts of time.
# [2] = system: transgenically overexpressed EIN3 protein; assay type: in vivo, Arabidopsis; settings: for abundance of transgenically overexpressed EIN3 protein: EIN3ox seedlings grown in air, MG132 50 μM, MG115 50 μM, Pefabloc SC 100 μM, 4 hr
# Experimental: as §1
# EBF1 gene = settings: in vivo
# Experimental: (§2) (A) Alignment of EBF1 (SEQ ID NO: 2) and EBF2 (SEQ ID NO: 4) amino acid sequences generated with ClustalW program. Identical amino acid residues in the two proteins are highlighted with black boxes. […] (B) Alignment of F-box motif sequences. […] Identities and similarities among the different proteins are highlighted by black and gray, respectively. Consensus residues are denoted by asterisks. […] Etiolated wild-type seedlings were treated with air (air) or ethylene (C2H4) for 4 hr before RNA was extracted for analysis. Each treatment was performed in replicate. The means of normalized intensity were used to indicate relative expression levels.
# EBF2 gene = settings: in vivo
# Experimental: as §2
# EIN3-GFP fusion protein [3] = settings: immunoblot, ethylene treatment
# Experimental: Protein samples were prepared by homogenizing the powdered tissues in 2×SDS-PAGE sample buffer and boiling the homogenate for 5 min. After centrifugation, the protein extracts were fractionated by 4-12% gradient Tris-Glycine Novex precast gels (Invitrogen), blotted onto a nitrocellulose filter. The blot was probed first with anti-EIN3 antibody, and was subsequently stripped with 0.2 N glycine (pH 2.5) for 3 times and re-probed with either anti-CRY1 antibody (Lin et al., Proc Natl Acad Sci 92, 8423-8427, 1995) or anti-SUB1 antibody (Guo et al., Science 291, 487-490, 2001)
# The triple response phenotype was scored in T2 seedlings originated from individual Kanamycin-resistant T1 plants. Transgenic seedlings that expressed a functional EIN3-GFP fusion protein were mounted on glass slides using PBS as a mounting medium. […] For the time course experiment, after the first cell image was taken, 50 μM of ACC or MG132 was applied to the slide and the same cell was followed for 4 hr.
# EIN3 protein [4] = assay: EIN3 protein immunoblot, Arabidopsis suspension cell cultures; assay type: cell-based; settings: suspension cells; MG132 50 μM (after 30 min), MG115 50 μM, Pefabloc SC 100 μM
# Experimental: as §1
# EIN3-GFP fusion protein [5] = assay: EIN3-GFP nuclear accumulation, fluorescence microscopy of transgenic seedlings; assay type: in vivo, Arabidopsis; settings: for abundance of EIN3-GFP in the nucleus: hypocotyl and root cells, ACC 50 μM or MG132 50 μM, absence of ethylene for MG132
# Experimental: Transgenic seedlings that expressed a functional EIN3-GFP fusion protein were mounted on glass slides using PBS as a mounting medium. All images were collected on a fluorescence microscope (Olympus BX60) and the color of the images was artificially added in Photoshop 5.0 (Adobe Systems). For the time course experiment, after the first cell image was taken, 50 μM of ACC or MG132 was applied to the slide and the same cell was followed for 4 hr.
compound,measurement,setting,value
"C=C [ethylene, Ethylene]",levels of EIN3 protein with de novo translation blocked,"EIN3 protein [1]; ethylene-pretreated (2 hr) wild-type seedlings, 100 μM cycloheximide, kept in ethylene",remained constitutively high
same,level of EIN3 protein,"EIN3 protein [1]; wild-type plants, ethylene gas 10 ppm, after 1 hr",markedly increased
same,levels of transgenically overexpressed EIN3 protein,"[2]; EIN3ox plants, ethylene gas 10 ppm",up-regulated
same,RNA level of EBF1 gene,EBF1 gene,induced
same,RNA level of EBF2 gene,EBF2 gene,induced
same,level of EIN3-GFP fusion protein,EIN3-GFP fusion protein [3],dramatically increased
Cl.NCCc1ccc(S(=O)(=O)F)cc1 [Pefabloc],levels of EIN3 protein (EIN3 abundance),EIN3 protein [4],no effect
same,abundance of transgenically overexpressed EIN3 protein,[2],not
CC(C)C[C@@H](C=O)NC(=O)[C@H](CC(C)C)NC(=O)[C@H](CC(C)C)NC(=O)OCc1ccccc1 [MG132] (Cbz-Leu-Leu-Leu-aldehyde),levels of EIN3 protein (EIN3 abundance),EIN3 protein [4],markedly increased
same,abundance of transgenically overexpressed EIN3 protein,[2],similarly induced
same,abundance of EIN3-GFP in the nucleus,EIN3-GFP fusion protein [5],rapid nuclear accumulation
CCC[C@@H](C=O)NC(=O)[C@H](CC(C)C)NC(=O)[C@H](CC(C)C)NC(=O)OCc1ccccc1 [MG115] (Cbz-Leu-Leu-[Nva]-aldehyde),levels of EIN3 protein (EIN3 abundance),EIN3 protein [4],enhanced EIN3 abundance
same,abundance of transgenically overexpressed EIN3 protein,[2],similarly induced
"NC1(C(=O)O)CC1 [ACC, aminocyclopropane-1-carboxylic acid]",levels of EIN3 protein,"EIN3 protein [1]; wild-type seedlings on medium with high concentrations of ACC (10 and 50 μM), 3 days",dramatically elevated
same,time of ACC treatment after which EIN3-GFP accumulated in the nucleus,"EIN3-GFP fusion protein [5]; 50 μM ACC, time course, same cell followed for 4 hr",1 h
same,abundance of EIN3-GFP in the nucleus,EIN3-GFP fusion protein [5],substantially enhanced
"O=[N+]([O-])[O-].[Ag+] [silver ion, AgNO3]",ethylene-induced EIN3 accumulation,"EIN3 protein [1]; wild-type seedlings on MS medium with 100 μM AgNO3 for 3 days, ethylene 4 hr",no longer induced by ethylene

# Reference: US7902422B2 (priority 2004, dated 2011)
